Series [1] has as its target T1, TEM-1 β-lactamase (Escherichia coli, UniProt P62593). Description: TEM-1 β-lactamase inhibition assay (nitrocefin hydrolysis, 486 nm). Format: biochemical. In outline: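 TEM-1 activity followed by nitrocefin hydrolysis at 486 nm, 25 °C, 50 mM sodium phosphate pH 7.0, 5% DMSO; inhibitor preincubated with enzyme 10 min before substrate. Ki obtained from rates at increasing inhibitor concentrations fitted to competitive-inhibition equations; penicillin G also used as substrate for KM and kcat.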

Another series deals with β-lactamase wt (Escherichia coli, UniProt P62593). Put plainly: Isothermal titration calorimetry, binding enthalpy, wild type. The procedure:
(§1) The binding of the compounds of the present invention to β-lactamase was also measured by isothermal titration calorimetry.
(§2) These experiments, in combination with the inhibition assays, indicate that the compounds identified in this disclosure bind to the wild type as well as drug resistant beta lactamases with favorable binding enthalpies. This is a very important characteristic from the point of view of further optimization since it facilitates the achievement of extremely high affinities and low susceptibilities to drug resistant mutations and naturally occurring polymorphisms.
(§3) Isothermal titration calorimetry was performed on a high-precision VP-ITC titration calorimeter (Microcal Inc., Northampton, Mass.). β-Lactamase solutions were titrated with inhibitors in 50 mM sodium phosphate, 2% DMSO, pH 7.0, with β-lactamase concentrations ranging from 15 to 25 μM and inhibitor concentrations ranging from 300 to 1000 μM. The heat evolved from each injection was obtained by integrating the calorimetric signal. Heat of binding was obtained as the difference between the heat of reaction and the heat of inhibitor dilution. Data were analyzed using Origin 7.0 (OriginLab Corporation, Northampton, Mass.).
(In general: Isothermal titration calorimetry measures the heat released or taken up as one component is titrated into another.)

The target in the next series is β-lactamase M69I (Escherichia coli, UniProt P62593, M67I). Put plainly: Isothermal titration calorimetry, binding enthalpy, M69I mutant. The protocol:
as §1, §2, §3

For a further series, the target named is β-lactamase E104K (Escherichia coli, UniProt P62593, E102K). Description: Isothermal titration calorimetry, binding enthalpy, E104K mutant. The procedure: as §1, §2, §3
Another series deals with β-lactamase R244S (Escherichia coli, UniProt P62593, R241S). Put plainly: Isothermal titration calorimetry, binding enthalpy, R244S mutant. The protocol:
as §1, §2, §3

Another series concerns the target β-lactamase mutant E104K (Escherichia coli, UniProt P62593, E102K). The series is classed as biochemical. Conditions: number higher than 1 reflects a loss of potency against mutant. The protocol: (§4) The inhibition of TEM-1 β-lactamase was determined spectrophotometrically. B-lactamase activity was followed by measuring the hydrolysis of nitrocefin, [3-(2,4-dinitrostyryl)-(6R, 7R)-7-(2-thienylacetamido)-ceph-3-em-4-carboxylic acid, E-isomer], (Calbiochem, San Diego, Calif., USA) at 486 nm. Inhibition assays were performed at 25° C. in 50 mM sodium phosphate, 5% DMSO, pH 7.0. […] Inhibitor was added to the enzyme and incubated for ten minutes before the addition of substrate. Inhibition constants (Ki) for the inhibitors are obtained at the desired temperature and solvent conditions by measuring the rate of substrate hydrolysis at increasing amounts of inhibitors.
(§5) Three of the most important mutations are M69I, R244S and E104K.

In another series the target is β-lactamase mutant M69I (Escherichia coli, UniProt P62593, M67I). The series is classed as biochemical. The note with it: number higher than 1 reflects a loss of potency against mutant. The procedure:
as §4, §5

In another series the target is β-lactamase mutant R244S (Escherichia coli, UniProt P62593, R241S). Format: biochemical. Conditions: number higher than 1 reflects a loss of potency against mutant. The protocol: as §4, §5
Series [2] has as its target T1, TEM-1 β-lactamase. Put plainly: Isothermal titration calorimetry, binding to TEM-1 β-lactamase (Example 17). Conditions: ITC. In a few lines:
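TEM-1 β-lactamase (15–25 μM) titrated with inhibitor (300–1000 μM) in 50 mM sodium phosphate, 2% DMSO, pH 7.0. Integrated injection heats were corrected for inhibitor dilution heat to give binding heat.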

A further series addresses T2, AmpC β-lactamase (Escherichia coli, UniProt P00811).
T2 construct: made in house; host or cells: E. coli BL21 (DE3)
The series is classed as biochemical. The note with it: substrate hydrolysis by AmpC, 25° C., pH 7.0. The protocol:
The competitive inhibition of β-lactamase was determined spectrophotometrically using a Varian (Walnut Creek, Calif.) Cary 100 UV-Visible spectrophotometer. β-lactamase activity was followed by measuring the hydrolysis of nitrocefin, [3-(2,4-dinitrostyryl)-(6R, 7R)-7-(2-thienylacetamido)-ceph-3-em-4-carboxylic acid, E-isomer], (Calbiochem, San Diego, Calif.) at 486 nm. Inhibition assays were performed at 25° C. in 50 mM sodium phosphate, 5% DMSO, pH 7.0. […] Penicillin G (Sigma, St. Louis, Mo.) was also used as a substrate to determine KM and kcat.

[3] abbreviates: Ki, 25° C., 50 mM sodium phosphate, 5% DMSO, pH 7.0, enzyme 5 nM, nitrocefin 167 μM.

Where “and” joins values, the source holds several entries; their conditions need not be identical. Equal entries are not always repeated. Where two headings read alike, the source gives them in different places.

T2 sequence (P00811 20-377): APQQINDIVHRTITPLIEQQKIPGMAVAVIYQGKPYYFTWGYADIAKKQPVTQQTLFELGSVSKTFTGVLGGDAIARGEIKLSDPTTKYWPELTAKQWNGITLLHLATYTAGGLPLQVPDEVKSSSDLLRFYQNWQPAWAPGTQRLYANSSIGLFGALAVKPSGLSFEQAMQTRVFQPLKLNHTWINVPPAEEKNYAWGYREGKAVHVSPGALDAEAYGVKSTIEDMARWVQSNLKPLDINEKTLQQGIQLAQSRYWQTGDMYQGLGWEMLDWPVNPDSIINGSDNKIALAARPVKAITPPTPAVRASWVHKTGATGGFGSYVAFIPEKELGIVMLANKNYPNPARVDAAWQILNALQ

Regarding `O=C(Oc1ccccc1[N+](=O)[O-])c1cc(B(O)O)cc([N+](=O)[O-])c1` [Compound (1b), 3-(2-Nitrophenoxycarbonyl)-5-nitrophenylboronic acid], the melting point (usually the temperature, or range, at which the solid turns liquid) lay in the range of 128 to 130 °C. Moreover, the Ki (usually the dissociation constant of the complex between target and ligand, obtained from inhibition or displacement) at TEM-1 β-lactamase [1] (Ki from Lineweaver-Burke Analysis, values in parenthesis, Lineweaver-Burke analysis) came out at 1.18 µM. On TEM-1 β-lactamase [1] (setting [3]), this compound yielded a Ki of 12 ± 3 µM. This compound yielded a Ki on TEM-1 β-lactamase [1] (Ki, TEM-1 β-lactamase) of 12 µM. Besides, on β-lactamase wt, the ΔH wt is -3.8 kcal/mol. In addition, the “ΔH M69I” value on β-lactamase M69I was -2 kcal/mol. Also, the “ΔH E104K” value at β-lactamase E104K is -3.9 kcal/mol. The “ΔH R244S” value on β-lactamase R244S is -9.5 kcal/mol. Also, the “Loss of potency: ratio of the inhibitory constant between mutant and wild type (Potencywt/Potencymutant), E104K” value on β-lactamase mutant E104K worked out at 0.92. At β-lactamase mutant M69I, the “Loss of potency: ratio of the inhibitory constant between mutant and wild type (Potencywt/Potencymutant), M69I” value was found to be 1.0. For the same compound, the “Loss of potency: ratio of the inhibitory constant between mutant and wild type (Potencywt/Potencymutant), R244S” value on β-lactamase mutant R244S was 1.2. On TEM-1 β-lactamase [2], the ΔG was -6.42 kcal/mol, the ΔH was -4.011 kcal/mol and the “−TΔS” value is -2.409 kcal/mol.

For `O=C(Cc1cccs1)N[C@@H]1C(=O)N2C(C(=O)O)=C(/C=C/c3ccc([N+](=O)[O-])cc3[N+](=O)[O-])CS[C@H]12` [nitrocefin, 3-(2,4-dinitrostyryl)-(6R, 7R)-7-(2-thienylacetamido)-ceph-3-em-4-carboxylic acid, E-isomer], on AmpC β-lactamase, the Km (as a rule, the substrate concentration at which the rate is half of its maximum) was 250 µM and 253 µM; the kcat – broadly, the number of substrate molecules converted per active site and unit of time at saturation – was 975 s⁻¹ and 976 ± 46 s⁻¹.

In turn, `O=C(Oc1cccc([N+](=O)[O-])c1)c1cc(B(O)O)cc([N+](=O)[O-])c1` [Compound (1c), 3-(3-Nitrophenoxycarbonyl)-5-nitrophenylboronic acid] returned a melting point of 185 to 187 °C. On TEM-1 β-lactamase [1] (setting [3]), the Ki amounted to 39 ± 7 µM. Besides, on β-lactamase mutant E104K, the “Loss of potency: ratio of the inhibitory constant between mutant and wild type (Potencywt/Potencymutant), E104K” value is given as 0.56. Moreover, the “Loss of potency: ratio of the inhibitory constant between mutant and wild type (Potencywt/Potencymutant), M69I” value on β-lactamase mutant M69I came out at 1.0. Besides, the “Loss of potency: ratio of the inhibitory constant between mutant and wild type (Potencywt/Potencymutant), R244S” value on β-lactamase mutant R244S came to 0.52.

In turn, `COc1ccc(OC(=O)c2cc(B(O)O)cc([N+](=O)[O-])c2)cc1` [Compound (1d), 3-(4-Methoxyphenoxycarbonyl)-5-nitrophenylboronic acid] came in with a melting point of 67 °C. The affinity on TEM-1 β-lactamase [1] (setting [3]), expressed as Ki, was 42 ± 7 µM. In addition, on β-lactamase mutant E104K, the “Loss of potency: ratio of the inhibitory constant between mutant and wild type (Potencywt/Potencymutant), E104K” value is 0.55. Also, the “Loss of potency: ratio of the inhibitory constant between mutant and wild type (Potencywt/Potencymutant), M69I” value on β-lactamase mutant M69I was determined as 0.60. The “Loss of potency: ratio of the inhibitory constant between mutant and wild type (Potencywt/Potencymutant), R244S” value at β-lactamase mutant R244S is listed as 0.62.

Consider `CC1(C)S[C@@H]2[C@H](NC(=O)Cc3ccccc3)C(=O)N2[C@H]1C(=O)O` [penicillin G, Penicillin G], for which, at AmpC β-lactamase, the kcat amounted to 198 ± 4 s⁻¹. For the same compound, the Km at AmpC β-lactamase (read-out: KM) is 28 ± 3 µM.
